Measured values taken from article PMC8800111 (The Journal of Biological Chemistry, 2021).

Experiments:
Format in all cases: cell-based
[1] = target: proteins of U3A human fibrosarcoma cells (4462 proteins detected) (Homo sapiens, UniProt O14965); conditions: protein AURKA; soluble abundance after heat, U3A cells
[2] = target: proteins of U3A human fibrosarcoma cells (4462 proteins detected) (Homo sapiens, UniProt O14976); conditions: protein GAK; U3A, 10 μM, 2 h
[3] = target: proteins of U3A human fibrosarcoma cells (4462 proteins detected) (Homo sapiens, UniProt O60885); conditions: protein BRD4; soluble abundance after heat, U3A cells
[4] = target: proteins of U3A human fibrosarcoma cells (4462 proteins detected) (Homo sapiens, UniProt O75151); conditions: protein PHF2; soluble abundance after heat, U3A cells
[5] = target: proteins of U3A human fibrosarcoma cells (4462 proteins detected) (Homo sapiens, UniProt O94992); conditions: protein HEXIM1, U3A cells
[6] = target: proteins of U3A human fibrosarcoma cells (4462 proteins detected) (Homo sapiens, UniProt O95456); conditions: protein PSMG1, U3A cells
[7] = target: proteins of U3A human fibrosarcoma cells (4462 proteins detected) (Homo sapiens, UniProt P17813); conditions: protein ENG; U3A cells
[8] = target: proteins of U3A human fibrosarcoma cells (4462 proteins detected) (Homo sapiens, UniProt P18206); conditions: protein VCL; soluble abundance after heat, U3A cells
[9] = target: proteins of U3A human fibrosarcoma cells (4462 proteins detected) (Homo sapiens, UniProt P26006); conditions: protein ITGA3; U3A cells
[10] = target: proteins of U3A human fibrosarcoma cells (4462 proteins detected) (Homo sapiens, UniProt P29992); conditions: protein GNA11; U3A cells
[11] = target: proteins of U3A human fibrosarcoma cells (4462 proteins detected) (Homo sapiens, UniProt P50995); conditions: protein ANXA11; U3A cells
[12] = target: proteins of U3A human fibrosarcoma cells (4462 proteins detected) (Homo sapiens, UniProt P52272); conditions: protein HNRNPM; U3A cells
[13] = target: proteins of U3A human fibrosarcoma cells (4462 proteins detected) (Homo sapiens, UniProt P52823); conditions: protein STC1; U3A, 10 μM, 2 h
[14] = target: proteins of U3A human fibrosarcoma cells (4462 proteins detected) (Homo sapiens, UniProt Q15370); conditions: protein TCEB2, U3A cells
[15] = target: proteins of U3A human fibrosarcoma cells (4462 proteins detected) (Homo sapiens, UniProt Q16774); conditions: protein GUK1; U3A, 10 μM, 2 h
[16] = target: proteins of U3A human fibrosarcoma cells (4462 proteins detected) (Homo sapiens, UniProt Q5HYK7); conditions: protein SH3D19; U3A, 10 μM, 2 h
[17] = target: proteins of U3A human fibrosarcoma cells (4462 proteins detected) (Homo sapiens, UniProt Q6PD74); conditions: protein AAGAB; U3A cells
[18] = target: proteins of U3A human fibrosarcoma cells (4462 proteins detected) (Homo sapiens, UniProt Q8IY18); conditions: protein SMC5; U3A, 10 μM, 2 h
[19] = target: proteins of U3A human fibrosarcoma cells (4462 proteins detected) (Homo sapiens, UniProt Q8TAA5); conditions: protein GRPEL2; U3A cells
[20] = target: proteins of U3A human fibrosarcoma cells (4462 proteins detected) (Homo sapiens, UniProt Q96PV6); conditions: protein LENG8; U3A, 10 μM, 2 h
[21] = target: proteins of U3A human fibrosarcoma cells (4462 proteins detected) (Homo sapiens, UniProt Q96QG7); conditions: protein MTMR9; soluble abundance after heat, U3A cells
[22] = target: proteins of U3A human fibrosarcoma cells (4462 proteins detected) (Homo sapiens, UniProt Q99470); conditions: protein SDF2, U3A cells
[23] = target: proteins of U3A human fibrosarcoma cells (4462 proteins detected) (Homo sapiens, UniProt Q9GZQ3); conditions: protein COMMD5; U3A cells
[24] = target: proteins of U3A human fibrosarcoma cells (4462 proteins detected) (Homo sapiens, UniProt Q9H7Z7); conditions: protein PTGES2, U3A cells
[25] = target: proteins of U3A human fibrosarcoma cells (4462 proteins detected) (Homo sapiens, UniProt Q9NQG5); conditions: protein RPRD1B; soluble abundance after heat, U3A cells
[26] = target: proteins of U3A human fibrosarcoma cells (4462 proteins detected) (Homo sapiens, UniProt Q9NVR2); conditions: protein INTS10; U3A cells
[27] = target: proteins of U3A human fibrosarcoma cells (4462 proteins detected) (Homo sapiens, UniProt Q9NZ52); conditions: protein GGA3; soluble abundance after heat, U3A cells
[28] = target: proteins of U3A human fibrosarcoma cells (4462 proteins detected) (Homo sapiens, UniProt Q9Y4X5); conditions: protein ARIH1; U3A cells
[29] = target: proteins of U3A human fibrosarcoma cells (4462 proteins detected) (Homo sapiens, UniProt Q9Y5P4); conditions: protein COL4A3BP; soluble abundance after heat, U3A cells

Sequence of proteins of U3A human fibrosarcoma cells (4462 proteins detected) (Homo sapiens, UniProt Q9GZQ3) (Q9GZQ3 whole entry): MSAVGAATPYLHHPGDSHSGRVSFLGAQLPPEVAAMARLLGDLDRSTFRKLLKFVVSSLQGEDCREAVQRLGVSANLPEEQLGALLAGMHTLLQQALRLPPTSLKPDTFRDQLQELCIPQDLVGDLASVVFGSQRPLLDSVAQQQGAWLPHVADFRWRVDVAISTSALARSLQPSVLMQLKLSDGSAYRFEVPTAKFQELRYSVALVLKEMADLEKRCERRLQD
Sequence of proteins of U3A human fibrosarcoma cells (4462 proteins detected) (Homo sapiens, UniProt P26006) (P26006 33-1051): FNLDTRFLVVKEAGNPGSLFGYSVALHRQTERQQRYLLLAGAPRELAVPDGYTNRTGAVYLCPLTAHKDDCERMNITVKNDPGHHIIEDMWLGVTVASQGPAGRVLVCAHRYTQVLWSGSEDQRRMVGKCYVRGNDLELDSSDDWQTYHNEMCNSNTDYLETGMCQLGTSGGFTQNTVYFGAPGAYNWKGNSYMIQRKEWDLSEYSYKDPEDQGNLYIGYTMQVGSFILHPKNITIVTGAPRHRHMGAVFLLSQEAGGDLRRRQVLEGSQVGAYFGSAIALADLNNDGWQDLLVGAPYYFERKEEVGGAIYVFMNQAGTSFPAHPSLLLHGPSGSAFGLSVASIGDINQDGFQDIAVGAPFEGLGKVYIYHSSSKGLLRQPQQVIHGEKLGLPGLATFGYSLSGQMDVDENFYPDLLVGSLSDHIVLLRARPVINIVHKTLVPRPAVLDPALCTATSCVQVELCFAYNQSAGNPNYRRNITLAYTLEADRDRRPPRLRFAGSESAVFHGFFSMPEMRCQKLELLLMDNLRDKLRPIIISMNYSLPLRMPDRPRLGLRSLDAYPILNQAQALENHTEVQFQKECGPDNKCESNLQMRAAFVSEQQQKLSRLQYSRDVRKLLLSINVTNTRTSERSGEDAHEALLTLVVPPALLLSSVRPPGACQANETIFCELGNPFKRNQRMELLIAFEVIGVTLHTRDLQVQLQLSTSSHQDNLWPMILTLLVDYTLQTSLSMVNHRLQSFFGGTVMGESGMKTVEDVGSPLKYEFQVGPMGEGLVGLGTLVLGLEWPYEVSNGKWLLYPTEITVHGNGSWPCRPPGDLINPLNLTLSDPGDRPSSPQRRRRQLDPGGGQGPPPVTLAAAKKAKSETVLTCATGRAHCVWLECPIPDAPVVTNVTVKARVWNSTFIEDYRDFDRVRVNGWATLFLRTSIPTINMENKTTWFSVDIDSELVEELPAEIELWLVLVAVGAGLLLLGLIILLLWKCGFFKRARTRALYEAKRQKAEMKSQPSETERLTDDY
Sequence of proteins of U3A human fibrosarcoma cells (4462 proteins detected) (Homo sapiens, UniProt Q8TAA5) (Q8TAA5 33-225): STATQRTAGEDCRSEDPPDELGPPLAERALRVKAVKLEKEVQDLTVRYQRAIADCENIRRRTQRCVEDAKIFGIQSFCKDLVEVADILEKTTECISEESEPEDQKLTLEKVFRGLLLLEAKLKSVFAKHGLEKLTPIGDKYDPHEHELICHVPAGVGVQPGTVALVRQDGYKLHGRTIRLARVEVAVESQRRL
Sequence of proteins of U3A human fibrosarcoma cells (4462 proteins detected) (Homo sapiens, UniProt Q96PV6) (Q96PV6 whole entry): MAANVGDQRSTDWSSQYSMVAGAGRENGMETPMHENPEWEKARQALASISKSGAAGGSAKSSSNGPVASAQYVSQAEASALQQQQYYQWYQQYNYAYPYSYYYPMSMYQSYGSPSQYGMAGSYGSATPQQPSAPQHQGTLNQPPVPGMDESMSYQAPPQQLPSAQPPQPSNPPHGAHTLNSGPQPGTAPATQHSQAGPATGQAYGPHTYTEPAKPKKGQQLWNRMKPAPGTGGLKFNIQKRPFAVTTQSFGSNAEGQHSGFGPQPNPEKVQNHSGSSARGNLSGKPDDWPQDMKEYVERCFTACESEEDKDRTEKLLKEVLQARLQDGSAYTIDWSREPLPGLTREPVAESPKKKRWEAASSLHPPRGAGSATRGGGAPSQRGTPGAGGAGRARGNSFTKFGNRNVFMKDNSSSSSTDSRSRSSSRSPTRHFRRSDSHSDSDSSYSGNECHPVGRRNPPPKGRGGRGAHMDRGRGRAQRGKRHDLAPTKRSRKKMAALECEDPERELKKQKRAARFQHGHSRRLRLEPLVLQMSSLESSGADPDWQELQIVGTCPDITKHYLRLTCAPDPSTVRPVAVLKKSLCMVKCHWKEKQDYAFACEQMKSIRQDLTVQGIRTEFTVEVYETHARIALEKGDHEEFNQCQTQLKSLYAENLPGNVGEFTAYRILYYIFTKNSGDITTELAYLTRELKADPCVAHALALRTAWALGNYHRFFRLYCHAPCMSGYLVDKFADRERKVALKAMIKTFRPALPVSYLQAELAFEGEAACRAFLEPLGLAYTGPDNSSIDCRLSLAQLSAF
Sequence of proteins of U3A human fibrosarcoma cells (4462 proteins detected) (Homo sapiens, UniProt Q6PD74) (Q6PD74 whole entry): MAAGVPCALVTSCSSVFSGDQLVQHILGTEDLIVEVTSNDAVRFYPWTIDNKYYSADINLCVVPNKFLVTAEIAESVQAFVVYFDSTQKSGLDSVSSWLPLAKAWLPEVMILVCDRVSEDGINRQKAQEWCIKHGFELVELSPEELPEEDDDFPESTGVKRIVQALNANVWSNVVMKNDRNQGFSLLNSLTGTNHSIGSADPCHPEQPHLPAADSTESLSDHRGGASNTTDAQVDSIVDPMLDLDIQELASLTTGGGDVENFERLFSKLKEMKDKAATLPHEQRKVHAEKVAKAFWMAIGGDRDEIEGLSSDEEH
Sequence of proteins of U3A human fibrosarcoma cells (4462 proteins detected) (Homo sapiens, UniProt Q9H7Z7) (Q9H7Z7 whole entry): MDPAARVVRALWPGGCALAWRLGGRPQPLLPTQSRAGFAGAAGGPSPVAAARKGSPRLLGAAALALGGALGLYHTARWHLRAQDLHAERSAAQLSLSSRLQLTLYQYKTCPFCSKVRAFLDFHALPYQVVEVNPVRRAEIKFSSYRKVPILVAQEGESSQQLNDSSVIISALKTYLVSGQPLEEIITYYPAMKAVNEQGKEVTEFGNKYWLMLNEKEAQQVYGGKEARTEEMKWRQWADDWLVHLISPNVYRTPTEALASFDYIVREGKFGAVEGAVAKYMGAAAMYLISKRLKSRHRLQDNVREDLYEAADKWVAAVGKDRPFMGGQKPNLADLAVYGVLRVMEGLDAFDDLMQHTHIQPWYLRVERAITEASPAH
Sequence of proteins of U3A human fibrosarcoma cells (4462 proteins detected) (Homo sapiens, UniProt P52272) (P52272 whole entry): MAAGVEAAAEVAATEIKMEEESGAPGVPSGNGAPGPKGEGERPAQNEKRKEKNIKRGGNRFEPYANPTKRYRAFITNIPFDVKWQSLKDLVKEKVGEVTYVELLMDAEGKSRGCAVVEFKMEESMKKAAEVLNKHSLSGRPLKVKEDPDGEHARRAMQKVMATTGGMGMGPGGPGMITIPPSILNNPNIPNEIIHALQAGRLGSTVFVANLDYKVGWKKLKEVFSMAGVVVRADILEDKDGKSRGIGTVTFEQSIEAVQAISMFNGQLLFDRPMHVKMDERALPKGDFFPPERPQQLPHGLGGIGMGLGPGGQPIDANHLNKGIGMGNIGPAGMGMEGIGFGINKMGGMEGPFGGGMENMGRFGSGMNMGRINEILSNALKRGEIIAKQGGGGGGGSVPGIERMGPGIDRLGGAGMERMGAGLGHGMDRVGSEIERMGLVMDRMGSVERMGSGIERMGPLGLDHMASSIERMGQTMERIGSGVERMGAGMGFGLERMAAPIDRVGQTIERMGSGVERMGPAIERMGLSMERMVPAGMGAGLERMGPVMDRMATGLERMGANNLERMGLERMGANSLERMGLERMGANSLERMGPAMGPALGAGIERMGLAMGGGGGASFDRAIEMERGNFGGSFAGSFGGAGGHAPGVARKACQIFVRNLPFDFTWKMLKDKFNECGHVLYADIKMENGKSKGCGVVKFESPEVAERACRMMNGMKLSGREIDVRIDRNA
Sequence of proteins of U3A human fibrosarcoma cells (4462 proteins detected) (Homo sapiens, UniProt O14965) (O14965 whole entry): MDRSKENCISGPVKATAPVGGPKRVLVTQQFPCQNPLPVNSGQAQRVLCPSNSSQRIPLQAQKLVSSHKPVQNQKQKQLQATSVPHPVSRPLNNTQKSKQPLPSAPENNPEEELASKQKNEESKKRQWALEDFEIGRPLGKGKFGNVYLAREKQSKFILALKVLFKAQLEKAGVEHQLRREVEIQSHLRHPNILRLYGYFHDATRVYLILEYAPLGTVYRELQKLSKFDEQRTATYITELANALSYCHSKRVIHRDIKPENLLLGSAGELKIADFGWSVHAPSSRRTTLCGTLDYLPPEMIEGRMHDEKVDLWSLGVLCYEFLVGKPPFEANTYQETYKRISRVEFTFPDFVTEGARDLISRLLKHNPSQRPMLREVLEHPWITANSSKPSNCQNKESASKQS
Sequence of proteins of U3A human fibrosarcoma cells (4462 proteins detected) (Homo sapiens, UniProt P50995) (P50995 whole entry): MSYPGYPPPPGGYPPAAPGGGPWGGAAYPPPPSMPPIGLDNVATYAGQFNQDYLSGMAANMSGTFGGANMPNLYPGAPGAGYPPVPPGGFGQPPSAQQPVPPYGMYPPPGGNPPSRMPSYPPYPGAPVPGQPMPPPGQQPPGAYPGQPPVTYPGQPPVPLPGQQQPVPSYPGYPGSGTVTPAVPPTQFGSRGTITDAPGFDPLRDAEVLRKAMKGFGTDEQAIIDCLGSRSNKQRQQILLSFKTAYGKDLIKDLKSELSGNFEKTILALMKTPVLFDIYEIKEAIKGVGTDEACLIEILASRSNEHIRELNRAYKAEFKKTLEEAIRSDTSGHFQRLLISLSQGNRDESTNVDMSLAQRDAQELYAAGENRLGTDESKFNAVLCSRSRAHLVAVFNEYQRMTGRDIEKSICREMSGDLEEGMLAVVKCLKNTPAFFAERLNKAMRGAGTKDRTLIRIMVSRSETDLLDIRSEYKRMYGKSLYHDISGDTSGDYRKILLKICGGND
Sequence of proteins of U3A human fibrosarcoma cells (4462 proteins detected) (Homo sapiens, UniProt Q16774) (Q16774 whole entry): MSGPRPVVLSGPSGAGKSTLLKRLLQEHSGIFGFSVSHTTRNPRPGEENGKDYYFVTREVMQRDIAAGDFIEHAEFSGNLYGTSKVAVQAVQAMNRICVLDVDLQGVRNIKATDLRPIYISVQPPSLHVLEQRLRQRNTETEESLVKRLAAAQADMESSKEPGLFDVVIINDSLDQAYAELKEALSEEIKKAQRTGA
Sequence of proteins of U3A human fibrosarcoma cells (4462 proteins detected) (Homo sapiens, UniProt Q15370) (Q15370 whole entry): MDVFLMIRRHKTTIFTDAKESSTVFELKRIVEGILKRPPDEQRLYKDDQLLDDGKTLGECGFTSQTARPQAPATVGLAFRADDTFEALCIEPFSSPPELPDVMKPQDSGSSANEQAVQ

## CCc1nc(N)nc(N)c1-c1ccc(Cl)cc1 [pyrimethamine]
[1]
  Log2 (PYR/DMSO): 0.15
[2]
  Log2 (PYR/DMSO), GAK: -0.20
[3]
  Log2 (PYR/DMSO): 0.14
[4]
  Log2 (PYR/DMSO): 0.14
[5]
  Log2 (PYR/DMSO): -0.04
[6]
  Log2 (PYR/DMSO): -0.05
[7]
  Log2 (PYR/DMSO): 0.15
[8]
  Log2 (PYR/DMSO): 0.15
[9]
  Log2 (PYR/DMSO): 0.16
[10]
  Log2 (PYR/DMSO): 0.16
[11]
  Log2 (PYR/DMSO): 0.19
[12]
  Log2 (PYR/DMSO): 0.16
[13]
  Log2 (PYR/DMSO), STC1: 0.25
[14]
  Log2 (PYR/DMSO): -0.04
[15]
  Log2 (PYR/DMSO), GUK1: -0.14
[16]
  Log2 (PYR/DMSO), SH3D19: -0.14
[17]
  Log2 (PYR/DMSO): 0.18
[18]
  Log2 (PYR/DMSO), SMC5: 0.30
[19]
  Log2 (PYR/DMSO): 0.18
[20]
  Log2 (PYR/DMSO), LENG8: 0.27
[21]
  Log2 (PYR/DMSO): 0.15
[22]
  Log2 (PYR/DMSO): -0.04
[23]
  Log2 (PYR/DMSO): 0.21
[24]
  Log2 (PYR/DMSO): -0.04
[25]
  Log2 (PYR/DMSO): 0.15
[26]
  Log2 (PYR/DMSO): 0.18
[27]
  Log2 (PYR/DMSO): 0.14
[28]
  Log2 (PYR/DMSO): 0.16
[29]
  Log2 (PYR/DMSO): 0.13
